Series [1] deals with FCA model of inflammatory nociception. As to conditions: rat.
For series [2], the target named is T1, DOP receptor (Homo sapiens, UniProt P41143).
T1 construct: expressed in transfected cells; host or cells: HEK293
Put plainly: cell-based.

Series [3] concerns the target T2, MOP receptor (Homo sapiens, UniProt P35372).
T2 construct: expressed in transfected cells; host or cells: HEK293
Put plainly: cell-based.

Series [4] is described as follows: Metabolic stability in rat plasma. Format: in vitro ADME. As to conditions: pooled rat plasma, 37°C, peptide 100 μM; for half-life: rat, plasma, read-out: Stability (t1/2) Plasma. The protocol: (§1) Whole blood was collected in-house from adult mixed-gender Wistar rats (RRID: RGD_150520162), and plasma was prepared in 0.2% EDTA as per standard practice. Peptides (final 100 μM) were incubated with pooled rat plasma at 37°C. Samples were collected at different time intervals 0, 5, 10, 15, 30, 60, and 120 min. At each time point, collected samples were immediately added to three volumes of cold ACN. This mixture was vortexed for 30 s and then centrifuged at room temperature (13 K rpm, 5 min). The supernatant was taken and directly placed in glass HPLC vials for LCMS analysis. The protocol for the trypsin stability assay was as for the plasma stability assay except for the […] (bovine pancreatic trypsin 2.5 μg/mL in NH4HCO3 buffer, approx. pH 8–8.5, 37°C).
(§2) Relative concentrations of each peptide from stability assays in plasma or trypsin were analysed using an Agilent binary LC system consisting of an Agilent 1290 Infinity LC pump, Agilent 1,290 auto-sampler coupled with Triple Quad Mass-Spectrometer (MS, model 6460, Agilent Technologies). A bidentate C18 HPLC column (Cogent, 100 Å, […]) with a binary solvent gradient composed of Solvent: A 0.1%v/v formic acid in MQ water and Solvent B: 0.1% v/v formic acid in ACN was used for the separation. The MS parameters were optimised for all compounds to obtain the highest signal in positive Total Ion Current (TIC) mode. Data were analysed using a combination of Microsoft Excel and GraphPad Prism software packages. Data was normalised to time point zero (immediately after compound addition) and expressed in percentages from t = 0. Half-lives were calculated in GraphPad Prism software (v8.3).

For series [5], the system named is pERK1/2 in HEK293-KOP receptor cells. It is filed as cell-based.
The target in series [6] is T3, KOP receptor (Homo sapiens, UniProt P41145). Format: cell-based.
Series [7] deals with T4, bovine pancreatic trypsin (Bos taurus, UniProt P00760).
T4 sequence (P00760 24-246): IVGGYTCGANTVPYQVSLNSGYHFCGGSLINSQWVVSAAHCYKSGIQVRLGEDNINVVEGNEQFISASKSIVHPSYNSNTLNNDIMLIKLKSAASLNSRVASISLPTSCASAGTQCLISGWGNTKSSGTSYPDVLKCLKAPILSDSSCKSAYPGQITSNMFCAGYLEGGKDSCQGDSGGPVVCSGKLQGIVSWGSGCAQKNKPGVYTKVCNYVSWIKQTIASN
The series can be described thus: Metabolic stability in trypsin. It is filed as in vitro ADME. To be noted: bovine pancreatic trypsin 2.5 μg/mL, pH 8-8.5, 37°C, peptide 100 μM; read-out: Stability (t1/2) Trypsin. The protocol: as §1, §2

For series [8], the target named is T3, KOP receptor. Put plainly: cell-based. It is filed as cell-based.
In series [9] the target is T3, KOP receptor. The series can be described thus: biochemical. It is filed as binding.

Each structure is given as a SMILES string. Like-named read-outs stand apart in the source and are kept apart here. Where a SMILES comes first, the peptide text is derived from it. [ ]: non-standard residue; d: D form. Phe(4-NO2) = N[C@@H](Cc1ccc([N+](=O)[O-])cc1)C(=O)O; Phe(4-Cl) = N[C@@H](Cc1ccc(Cl)cc1)C(=O)O; NMeR = CN[C@@H](CCCNC(=N)N)C(=O)O; Aoc = NCCCCCCCC(=O)O; Sar = CNCC(=O)O A value given as a limit tells only on which side of the number the result lay.

The source of these data is paper PMC10020352 (Frontiers in Pharmacology, 2023).

By EC50 is commonly meant the concentration needed to bring the measured effect to its halfway point. The Ki is a measure of affinity in units of concentration, obtained from inhibition or displacement. For orientation: IC50 means the concentration needed to halve the response being measured.

T1 sequence (P41143 whole entry): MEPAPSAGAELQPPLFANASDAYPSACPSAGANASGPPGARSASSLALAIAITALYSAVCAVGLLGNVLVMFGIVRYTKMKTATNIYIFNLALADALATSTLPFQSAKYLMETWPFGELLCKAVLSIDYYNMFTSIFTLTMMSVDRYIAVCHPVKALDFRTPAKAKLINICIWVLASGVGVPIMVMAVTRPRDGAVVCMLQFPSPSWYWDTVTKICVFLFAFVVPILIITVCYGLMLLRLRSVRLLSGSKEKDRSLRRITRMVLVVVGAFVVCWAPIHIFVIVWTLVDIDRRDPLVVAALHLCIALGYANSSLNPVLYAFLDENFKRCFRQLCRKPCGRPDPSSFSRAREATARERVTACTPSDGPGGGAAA
T3 sequence (P41145 whole entry): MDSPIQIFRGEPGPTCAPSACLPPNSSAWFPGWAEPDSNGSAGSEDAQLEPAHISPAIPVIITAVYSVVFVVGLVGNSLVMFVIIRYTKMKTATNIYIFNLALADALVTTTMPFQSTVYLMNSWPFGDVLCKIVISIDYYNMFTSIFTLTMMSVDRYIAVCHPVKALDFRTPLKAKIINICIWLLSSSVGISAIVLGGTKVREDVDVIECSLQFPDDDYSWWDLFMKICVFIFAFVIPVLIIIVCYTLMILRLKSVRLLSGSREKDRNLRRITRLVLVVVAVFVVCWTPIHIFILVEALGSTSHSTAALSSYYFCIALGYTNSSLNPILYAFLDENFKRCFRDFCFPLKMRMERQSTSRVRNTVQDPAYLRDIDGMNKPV
T2 sequence (P35372 whole entry): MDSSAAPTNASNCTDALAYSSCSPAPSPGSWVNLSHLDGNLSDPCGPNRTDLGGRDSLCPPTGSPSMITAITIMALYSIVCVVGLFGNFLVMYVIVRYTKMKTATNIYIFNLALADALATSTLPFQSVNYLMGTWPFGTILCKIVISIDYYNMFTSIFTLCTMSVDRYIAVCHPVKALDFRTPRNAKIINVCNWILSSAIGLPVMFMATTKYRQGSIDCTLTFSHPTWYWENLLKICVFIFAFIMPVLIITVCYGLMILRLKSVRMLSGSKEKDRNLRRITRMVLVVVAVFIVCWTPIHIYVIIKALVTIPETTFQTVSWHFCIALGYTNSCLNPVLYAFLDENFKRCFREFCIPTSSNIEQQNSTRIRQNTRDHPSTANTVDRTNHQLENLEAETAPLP

With `CN1CC[C@]23c4c5ccc(O)c4O[C@H]2[C@@H](O)C=C[C@H]3[C@H]1C5` [Morphine, reference compound], the “paw withdrawal threshold in the contralateral (uninflamed, untreated) paw” value in series [1] (in vivo) is reported as “significantly reduced”.
In the case of `CC(C)C[C@H](NC(=O)[C@H](Cc1ccccc1)NC(=O)CNC(=O)CNC(=O)[C@@H](N)Cc1ccc(O)cc1)C(=O)N[C@@H](CCCNC(=N)N)C(=O)N[C@@H](CCCNC(=N)N)C(=O)O` [Dyn 1-7, reference compound], the EC50 in series [2] (read-out: Activity (EC50) DOP) was 870 nM; in series [3] (read-out: Activity (EC50) MOP), 3740 nM. For the same molecule, the half-life in series [4] was 8.1 min; in series [7] it was below 1 min. Besides, the “bias factor β (cAMP versus pERK)” value in series [5] was “bias towards pERK”. Besides, the “pERK1/2 expression / activity” value in series [5] is “time and concentration-dependent pERK expression”. Moreover, the “KOP receptor desensitisation (maximal cAMP effect after pre-treatment)” value in series [6] is “no discernible desensitisation”.
As to `CC(C)C[C@H](NC(=O)[C@H](Cc1ccc([N+](=O)[O-])cc1)NC(=O)CN(C)C(=O)[C@@H](N)Cc1ccc(O)cc1)C(=O)N(C)[C@@H](CCCNC(=N)N)C(=O)N(C)[C@@H](CCCNC(=N)N)C(N)=O` [KA311] (H-Y[Sar][Phe(4-NO2)]L[NMeR][NMeR]-NH2), the 50% effective concentration (EC50) in series [8] is 31 nM; in series [2] it was above 10000 nM; in [3], above 10000 nM. Besides, the “selectivity for KOP receptor over MOP receptor and DOP receptor” value in [8] is above 1000 fold. For the same molecule, the Ki in [9] came out at 180 nM. The same molecule displayed a concentration for half-maximal inhibition (IC50) in series [9] (IC50) of 1950 nM. In addition, the half-life in [7] was above 1000 min. Besides, the “paw withdrawal threshold in the contralateral (uninflamed, untreated) paw” value in [1] (in vivo) is listed as “not observed”.
With `CC(C)C[C@H](NC(=O)[C@H](Cc1ccc(Cl)cc1)NC(=O)CN(C)C(=O)[C@@H](N)Cc1ccc(O)cc1)C(=O)N[C@@H](CCCNC(=N)N)C(=O)N[C@H](CCCNC(=N)N)C(=O)NCCCCCCCC(N)=O` [KA305] (H-Y[Sar][Phe(4-Cl)]LR[dR][Aoc]-NH2), the “inhibition of peptide cAMP modulation by naloxone” value in series [8] is “significantly blocked”. In [5], the “bias factor β (cAMP versus pERK)” value is listed as “bias towards cAMP” and the “pERK1/2 expression / activity” value is on record as “influenced pERK induction at higher concentrations”. For the same molecule, the “KOP receptor desensitisation (maximal cAMP effect after pre-treatment)” value in series [6] is on record as “modest but significant desensitisation”. In addition, in series [9], the “Log IC50” value is on record as -7.14 and the “binding affinity to KOP receptor (in words)” value was “strong binders”. For the same molecule, the IC50 in series [9] (read-out: IC50) was 72.6 nM. Besides, the half-life in [7] is 4.9 min. In addition, the “overall efficacy (AUC of in vivo effect)” value in [1] was “significantly better efficacy than U50488H”. For the same molecule, in series [1] (in vivo), the “Efficacy Index (Ie)” value is reported as “statistically significant higher Ie over morphine”, the “antinociceptive activity (paw withdrawal threshold)” value is reported as “showed antinociceptive activity”, the “effect of naloxone on peptide-induced antinociception” value is given as “blocked by pre-administration of naloxone” and the “effect on oedema of the affected paw” value is given as “without effecting oedema”. Besides, the “paw withdrawal threshold in the contralateral (uninflamed, untreated) paw” value in series [1] (in vivo) is “not observed”.
Turning to `CC(C)C[C@H](NC(=O)[C@H](Cc1ccc([N+](=O)[O-])cc1)NC(=O)CN(C)C(=O)[C@@H](N)Cc1ccc(O)cc1)C(=O)N[C@@H](CCCNC(=N)N)C(=O)N[C@H](CCCNC(=N)N)C(N)=O` [KA204] (H-Y[Sar][Phe(4-NO2)]LR[dR]-NH2), the EC50 in [8] is 7.5 nM; in series [2], above 10000 nM; in [3] it was above 10000 nM. In addition, the “selectivity for KOP receptor over MOP receptor and DOP receptor” value in series [8] was above 1000 fold. Moreover, the “Stability (t1/2) Plasma” value in [4] was 71 min. Moreover, the half-life in series [4] is above 60 min; in [7], 15.4 min. Besides, the concentration for half-maximal inhibition (IC50) in [9] and in [9] (IC50) was 30.2 nM throughout. In addition, in series [9], the Ki came to 2.8 nM. Besides, in series [1] (in vivo), the “paw withdrawal threshold in the contralateral (uninflamed, untreated) paw” value was “not observed”.
For `CC(C)C[C@H](NC(=O)[C@H](Cc1ccc(Cl)cc1)NC(=O)CN(C)C(=O)[C@@H](N)Cc1ccc(O)cc1)C(=O)N[C@@H](CCCNC(=N)N)C(=O)N(C)[C@@H](CCCNC(=N)N)C(N)=O` [KA309] (H-Y[Sar][Phe(4-Cl)]LR[NMeR]-NH2), the results for the concentration giving a half-maximal response (EC50) in series [8], in series [2] and in [3] were 3.9 nM, above 10000 nM and above 10000 nM, respectively. Further, the “Stability (t1/2) Plasma” value in series [4] is 174.1 min. Besides, the half-life in series [7] was above 1000 min.
